Data reported in US4434096A, “Substrates for the quantitative determination of proteolytic enzymes” (E. I. Du Pont de Nemours and Company, priority 1981, dated 1984).
Square brackets hold non-standard residues; d marks the D form. Peptide text beside a SMILES is read from it. * marks the point of attachment. SBn = c1ccc(CS*)cc1

Target: human α-thrombin (Homo sapiens, UniProt P00734)
Experiment: Kinetics of substrate hydrolysis by proteolytic enzyme (initial rates, centrifugal analyzer, Hanes plot)
Assay type: biochemical
Settings: substrate for human α-thrombin
Text: The Michaelis-Menten constant, Km, is a kinetic parameter related to the affinity of a substrate for an enzyme under a given set of reaction conditions. The Km is defined as the substrate concentration at which the initial reaction velocity is one-half of the maximal initial reaction velocity. The maximal velocity (vmax), another important kinetic parameter, when divided by the enzyme concentration, yields kcat. The determination of Km and kcat for a given substrate with various enzymes allows the determination of the selectivity of that substrate for a given enzyme.
Km and vmax values can be determined by utilizing a centrifugal analyzer (GEMSAEC system, available from Electro-Nucleonics, Inc., Fairfield, N.J.) to measure the initial rates of substrate hydrolysis by the proteolytic enzyme. Five substrate concentrations ([S]), ranging from about one-fifth to five times the expected Km, can be used for triplicate determinations in this centrifugal analyzer. The initial reaction rates (v) can then be plotted in a Hanes plot, [S]/v versus [S], for a determination of Km (the absolute value of the X-intercept) and vmax (the reciprocal of the slope) through linear regression analysis. Alternative procedures are available for the calculation of Km and vmax.
For a given enzyme, lower Km values for a series of substrates indicate higher affinity of the substrate to the enzyme. This allows the utilization of lesser amounts of substrate while still operating at vmax.

Row | Structure (SMILES) | Km | kcat
1 | NCCCC[C@H](NC(=O)OCc1ccccc1)C(=O)SCc1ccccc1 [Z--Lys--S--Bzl] | 38 µM | 84 s⁻¹
2 | CC(C)C[C@H](NC(=O)[C@H](N)C(C)C)C(=O)N[C@@H](CCCCN)C(=O)SCc1ccccc1 [H--D-Val--Leu--Lys--S--Bzl] (H-[dV]-Leu-Lys-SBn) | 16 µM | 94 s⁻¹
